# According to patent US20180296630A1, “METHODS AND COMPOSITIONS FOR PREVENTING OR TREATING OPHTHALMIC CONDITIONS” (Stealth BioTherapeutics Corp, priority 2012, published 2018):
# Assays:
# GTM3 cells = test: ROS production, sustained oxidative injury by H2O2, GTM3 cells; type: cell-based, human; settings: then 200 μM H2O2 24 h
# Experimental: The effects of D-Arg-2′,6′-Dmt-Lys-Phe-NH2 on sustained oxidative injury of GTM and HTM cells was examined. Cells were pre-treated with 10^−6, 10^−7, 10^−8M of D-Arg-2′,6′-Dmt-Lys-Phe-NH2 for 1 h, and then incubated with 200 μM H2O2 for 24 h to investigate the protective effect of D-Arg-2′,6′-Dmt-Lys-Phe-NH2 in sustained oxidative stress.
# [1] = tested on: trabecular meshwork cells from non-diseased individuals (HTM); test: LDH cytotoxicity assay, HTM cells; type: cell-based, human
# From the text: In this Example, the effects of the aromatic-cationic peptides of the invention were compared between trabecular meshwork cells from POAG patients (GTM) and trabecular meshwork cells from non-diseased individuals (HTM). Methods useful in the studies of the present invention have been described. See generally, He Y, Ge J, Tombran-Tink J., Mitochondrial defects and dysfunction in calcium regulation in glaucomatous trabecular meshwork cells. Invest Ophthalmol Vis Sci. 2008, 49(11):4912-22; He Y, Leung K W, Zhang Y H, Duan S, Zhong X F, Jiang R Z, Peng Z, Tombran-Tink J, Ge J. Mitochondrial complex I defect induces ROS release and degeneration in trabecular meshwork cells of POAG patients: protection by antioxidants. Invest Ophthalmol Vis Sci. 2008, 49(4):1447-58. […]
# To assess whether D-Arg-2′,6′-Dmt-Lys-Phe-NH2 had cytotoxic effects of HTM or GTM cells, various concentrations of D-Arg-2′,6′-Dmt-Lys-Phe-NH2 were administered to cells and the cytotoxicity was measured using an LDH assay. […] The assay quantitatively measures the stable, cytosolic, lactate dehydrogenase (LDH) enzyme, which is released from damaged cells. The released LDH is measured with a coupled enzymatic reaction that results in the conversion of a tetrazolium salt (iodonitrotetrazolium (INT)) into a red color formazan by diaphorase. […] The LDH activity is determined as NADH oxidation or INT reduction over a defined time period.
# HFD/STZ diabetic rats = test: Lens opacity (cataract) in HFD/STZ rat model; type: in vivo, Sprague-Dawley rat; settings: for Percentage of opacity / Percentage of severe opacity / Turbidity degree + (mildly opaque), number in group / Turbidity degree ++ (opaque), number in group / Turbidity degree +++ (moderately opaque), number in group / Turbidity degree ++++ (severely opaque), number in group / Turbidity degree − (transparent), number in group: HFD/STZ rat model
# Experimental: A rat model of diabetes was established by combination of 6-week HFD and low dose of STZ (30 mg/kg) injection or a single high dose of STZ (65 mg/kg) in SD rats. See generally, K. Srinivasan, B. Viswanad, Lydia Asrat, C. L. Kaul and P. Ramarao, Combination of high-fat diet-fed and low-dose streptozotocin-treated rat: A model for type 2 diabetes and pharmacological screening, Pharmacological Research, 52(4): 313-320, 2005. Rats of the same batch fed with normal chow (NRC) were used as a control.
# GTM cells = test: Morphology of GTM cells exposed to H2O2 (inverted phase contrast microscopy); type: cell-based, human; settings: peptide prior to H2O2, concentration-dependent and time-dependent
# From the text: The morphology of GTM cells was investigated when those cells were exposed to D-Arg-2′,6′-Dmt-Lys-Phe-NH2 prior to administration of hydrogen peroxide. […] That is, hydrogen peroxide mediated cell loss and rounding was diminished in cells exposed to D-Arg-2′,6′-Dmt-Lys-Phe-NH2 peptide. The mitochondrial membrane potential (Δψm) of HTM and GTM cells was also investigated when those cells were exposed to D-Arg-2′,6′-Dmt-Lys-Phe-NH2 prior to administration of hydrogen peroxide. The mitochondrial membrane potential was measured using confocal microscopy of cells labeled with tetramethylrhodamine methyl ester (TMRM, 500 nM×30 min) (FIG. 19-21). […] As such, D-Arg-2′,6′-Dmt-Lys-Phe-NH2 provides a protective effect against oxidative stress in GTM cells.
# [2] = tested on: human retinal epithelial cells (HREC); test: Mitochondrial membrane potential of high-glucose HRECs (JC-1, flow cytometry); type: cell-based; settings: 100 nM co-treatment with high glucose; 24 or 48 hours
# Experimental: Assessment of D-Arg-2′,6′-Dmt-Lys-Phe-NH2 as a protectant against mitochondrial potential loss of HRECs treated with high-glucose was examined. To determine if a mitochondrial-mediated pathway was important in the protective effect of D-Arg-2′,6′-Dmt-Lys-Phe-NH2 against high glucose-induced cell death, ΔΨm was measured by flow cytometry. After treating the HRECs with high-glucose without D-Arg-2′,6′-Dmt-Lys-Phe-NH2 for 24 or 48 hours, a rapid loss of mitochondrial membrane potential was detected by JC-1 fluorescent probe as indicated by a significant decrease in the ratio of red to green fluorescence observed in the high glucose group.
substance,measurement,setting,value
"D-Arg-2′,6′-Dmt-Lys-Phe-NH2",ROS Production,GTM3 cells; 0.01 μM pre-treatment 1 h,133.70 ± 3.24 %
same,ROS Production,GTM3 cells; 0.1 μM pre-treatment 1 h,68.91 ± 8.62 %
same,ROS Production,GTM3 cells; 1 μM pre-treatment 1 h,47.40 ± 1.81 %
same,cytotoxicity,[1]; 10^−4M,no cytotoxicity
same,viability (LDH assay),[1]; various concentrations,does not affect the viability
same,cataract formation in the lenses of diabetic rats,"HFD/STZ diabetic rats; HFD/STZ and STZ models (FIGS. 6 and 7, Tables 13 and 14)",prevention or reversal of cataract formation
same,Percentage of opacity,HFD/STZ diabetic rats; 1 mg (Table 9: 1 mg/kg s.c.),67.7%
same,Percentage of severe opacity,HFD/STZ diabetic rats; 1 mg (Table 9: 1 mg/kg s.c.),0%
same,"Turbidity degree + (mildly opaque), number in group",HFD/STZ diabetic rats; 1 mg (Table 9: 1 mg/kg s.c.),1
same,"Turbidity degree ++ (opaque), number in group",HFD/STZ diabetic rats; 1 mg (Table 9: 1 mg/kg s.c.),1
same,"Turbidity degree +++ (moderately opaque), number in group",HFD/STZ diabetic rats; 1 mg (Table 9: 1 mg/kg s.c.),0
same,"Turbidity degree ++++ (severely opaque), number in group",HFD/STZ diabetic rats; 1 mg (Table 9: 1 mg/kg s.c.),0
same,"Turbidity degree − (transparent), number in group",HFD/STZ diabetic rats; 1 mg (Table 9: 1 mg/kg s.c.),1
same,Percentage of opacity,HFD/STZ diabetic rats; 3 mg (Table 9: 3 mg/kg s.c.),20.0%
same,Percentage of severe opacity,HFD/STZ diabetic rats; 3 mg (Table 9: 3 mg/kg s.c.),20.0%
same,"Turbidity degree + (mildly opaque), number in group",HFD/STZ diabetic rats; 3 mg (Table 9: 3 mg/kg s.c.),1
same,"Turbidity degree ++ (opaque), number in group",HFD/STZ diabetic rats; 3 mg (Table 9: 3 mg/kg s.c.),0
same,"Turbidity degree +++ (moderately opaque), number in group",HFD/STZ diabetic rats; 3 mg (Table 9: 3 mg/kg s.c.),0
same,"Turbidity degree ++++ (severely opaque), number in group",HFD/STZ diabetic rats; 3 mg (Table 9: 3 mg/kg s.c.),1
same,"Turbidity degree − (transparent), number in group",HFD/STZ diabetic rats; 3 mg (Table 9: 3 mg/kg s.c.),3
same,Percentage of opacity,HFD/STZ diabetic rats; 10 mg (Table 9: 10 mg/kg s.c.),14.3%
same,Percentage of severe opacity,HFD/STZ diabetic rats; 10 mg (Table 9: 10 mg/kg s.c.),0%
same,"Turbidity degree + (mildly opaque), number in group",HFD/STZ diabetic rats; 10 mg (Table 9: 10 mg/kg s.c.),1
same,"Turbidity degree ++ (opaque), number in group",HFD/STZ diabetic rats; 10 mg (Table 9: 10 mg/kg s.c.),0
same,"Turbidity degree +++ (moderately opaque), number in group",HFD/STZ diabetic rats; 10 mg (Table 9: 10 mg/kg s.c.),0
same,"Turbidity degree ++++ (severely opaque), number in group",HFD/STZ diabetic rats; 10 mg (Table 9: 10 mg/kg s.c.),0
same,"Turbidity degree − (transparent), number in group",HFD/STZ diabetic rats; 10 mg (Table 9: 10 mg/kg s.c.),6
same,hydrogen peroxide-mediated morphological changes (cell loss and rounding),GTM cells,protects cells from hydrogen peroxide-mediated morphological changes
same,Δψm (ratio of red to green JC-1 fluorescence),[2],remained virtually unchanged
